Assay results from patent US20240124432A1, “HERBICIDAL COMPOUNDS” (SYNGENTA CROP PROTECTION AG, priority 2020, published 2024).

Assays:
Assay type in all cases: in vivo
ECHCG [1] = experiment: Post-emergence biological efficacy; conditions: Echinochloa crus-galli, 312 h, evaluated after 13 days, read-out: damage to plant (100=total damage to plant; 0=no damage to plant)
Procedure, shortened: (§1)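 Damage was rated 13 days after treatment, from 0 (none) to 100 (total). Test compounds, formulated in IF50 and diluted with 0.2% Genapol XO80 to final dose, were sprayed on glasshouse plants raised for 14 days from seed.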

IPOHE [2] = experiment: Post-emergence biological efficacy; conditions: Ipomoea hederacea, 312 h, evaluated after 13 days, read-out: damage to plant (100=total damage to plant; 0=no damage to plant)
Procedure, shortened: as §1

EPHHL [3] = experiment: Post-emergence biological efficacy; conditions: Euphorbia heterophylla, 312 h, evaluated after 13 days, read-out: damage to plant (100=total damage to plant; 0=no damage to plant)
Procedure, shortened: as §1

DIGSA = experiment: Post-emergence biological efficacy; conditions: Digitaria sanguinalis, 312 h, evaluated after 13 days, read-out: damage to plant (100=total damage to plant; 0=no damage to plant)
Procedure, shortened: as §1

ELEIN = experiment: Post-emergence biological efficacy; conditions: 312 h, evaluated after 13 days, read-out: damage to plant (100=total damage to plant; 0=no damage to plant)
Procedure, shortened: as §1

LOLPE [4] = experiment: Post-emergence biological efficacy; conditions: Lolium perenne, 312 h, evaluated after 13 days, read-out: damage to plant (100=total damage to plant; 0=no damage to plant)
Procedure, shortened: as §1

CHEAL = experiment: Post-emergence biological efficacy; conditions: Chenopodium album, 312 h, evaluated after 13 days, read-out: damage to plant (100=total damage to plant; 0=no damage to plant)
Procedure, shortened: as §1

SETFA [5] = experiment: Post-emergence biological efficacy; conditions: Setaria faberi, 312 h, evaluated after 13 days, read-out: damage to plant (100=total damage to plant; 0=no damage to plant)
Procedure, shortened: as §1

AMAPA [6] = experiment: Post-emergence biological efficacy; conditions: Amaranthus palmeri, 312 h, evaluated after 13 days, read-out: damage to plant (100=total damage to plant; 0=no damage to plant)
Procedure, shortened: as §1

ECHCG [7] = experiment: Pre-emergence biological efficacy; conditions: Echinochloa crus-galli, 312 h, evaluated after 13 days, read-out: damage to plant (100=total damage to plant; 0=no damage to plant)
Procedure, shortened: (§2)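 Pots sown and kept one day in glasshouse (24/19° C., 16 h light), then sprayed with compound formulated in IF50 (50 g/l) diluted in 0.2% Genapol XO80 to final dose. Grown at 24/18° C., 15 h light, 50% humidity; damage scored after 13 days, 0 none to 100 total.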

IPOHE [8] = experiment: Pre-emergence biological efficacy; conditions: Ipomoea hederacea, 312 h, evaluated after 13 days, read-out: damage to plant (100=total damage to plant; 0=no damage to plant)
Procedure, shortened: as §2

EPHHL [9] = experiment: Pre-emergence biological efficacy; conditions: Euphorbia heterophylla, 312 h, evaluated after 13 days, read-out: damage to plant (100=total damage to plant; 0=no damage to plant)
Procedure, shortened: as §2

LOLPE [10] = experiment: Pre-emergence biological efficacy; conditions: Lolium perenne, 312 h, evaluated after 13 days, read-out: damage to plant (100=total damage to plant; 0=no damage to plant)
Procedure, shortened: as §2

SETFA [11] = experiment: Pre-emergence biological efficacy; conditions: Setaria faberi, 312 h, evaluated after 13 days, read-out: damage to plant (100=total damage to plant; 0=no damage to plant)
Procedure, shortened: as §2

AMAPA [12] = experiment: Pre-emergence biological efficacy; conditions: Amaranthus palmeri, 312 h, evaluated after 13 days, read-out: damage to plant (100=total damage to plant; 0=no damage to plant)
Procedure, shortened: as §2

Structure (SMILES) | pest or weed control at 250 g/ha (ECHCG [1]) | pest or weed control at 250 g/ha (IPOHE [2]) | pest or weed control at 250 g/ha (EPHHL [3]) | pest or weed control at 250 g/ha (DIGSA) | pest or weed control at 250 g/ha (ELEIN) | pest or weed control at 250 g/ha (LOLPE [4]) | pest or weed control at 250 g/ha (CHEAL) | pest or weed control at 250 g/ha (SETFA [5]) | pest or weed control at 250 g/ha (AMAPA [6]) | pest or weed control at 250 g/ha (ECHCG [7]) | pest or weed control at 250 g/ha (IPOHE [8]) | pest or weed control at 250 g/ha (EPHHL [9]) | pest or weed control at 250 g/ha (LOLPE [10]) | pest or weed control at 250 g/ha (SETFA [11]) | pest or weed control at 250 g/ha (AMAPA [12])
CCOC(=O)C1(C)CC(c2cc(-c3c(Cl)cc(C(F)(F)F)c[n+]3[O-])c(F)cc2Cl)=NO1 (stereo not drawn) [Compound 1-667, Ethyl 3-[2-chloro-5-(3-chloro-1-oxido-5-trifluoromethyl-2-pyridyl)-4-fluoro-phenyl]-5-methyl-4H-isoxazole-5-carboxylate] | 100% | 100% | 100% | 100% | 100% | 100% | 100% | 100% | 100% | 100% | 100% | 100% | 100% | 100% | 100%
CCOC(=O)C1(C)CC(c2cc(-c3ccc(Cl)nn3)c(F)cc2Cl)=NO1 (stereo not drawn) [Compound 1-679, Ethyl 3-[2-chloro-5-(6-chloropyridazin-3-yl)-4-fluoro-phenyl]-5-methyl-4H-isoxazole-5-carboxylate] | 50% | 40% | 50% | 50% | 60% | 10% | 60% | 50% | 60% | 0% | 0% | 0% | 0% | 0% | 0%
CCOC(=O)C1(C)CC(c2cc(-c3cncc(C(F)(F)F)n3)c(F)cc2Cl)=NO1 (stereo not drawn) [Compound 1-727, Ethyl 3-[2-chloro-4-fluoro-5-[6-(trifluoromethyl)pyrazin-2-yl]phenyl]-5-methyl-4H-isoxazole-5-carboxylate] | 90% | 100% | 70% | 70% | 80% | 20% | 70% | 90% | 70% | 30% | 20% | 10% | 0% | 10% | 0%
CCOC(=O)C1(C)CC(c2cc(-c3cnc(C)cn3)c(F)cc2Cl)=NO1 (stereo not drawn) [Compound 1-739, Ethyl 3-[2-chloro-4-fluoro-5-(5-methylpyrazin-2-yl)phenyl]-5-methyl-4H-isoxazole-5-carboxylate] | 30% | 50% | 40% | 30% | 50% | 0% | 50% | 30% | 50% | 0% | 0% | 0% | 0% | 0% | 0%
CCOC(=O)C1(C)CC(c2cc(-c3cnc4ccc(C(F)(F)F)cc4n3)c(F)cc2Cl)=NO1 (stereo not drawn) [Compound 1-763, Ethyl 3-[2-chloro-4-fluoro-5-[7-(trifluoromethyl)quinoxalin-2-yl]phenyl]-5-methyl-4H-isoxazole-5-carboxylate] | 0% | 10% | 20% | 0% | 0% | 0% | 20% | 0% | 20% | 0% | 0% | 0% | 0% | 0% | 0%
